In patent US7884136B2, “Modified-release formulations of a bupropion salt” (Biovail Laboratories International S.R.L., priority 2005, dated 2011):

Experiment: Shelf life stability program of bupropion HBr, 25° C./60% RH, 3 and 6 months, HPLC
Type: physicochemical
Conditions: 25° C./RH 60%; for Chromatographic purity B) (HPLC): 4) 2-N-(tert-Butyl)-aminopropiophenone / Chromatographic purity B) (HPLC): 5) single unknown impurity (each): LOQ 0.02%, LOD 0.002%; for Chromatographic purity A) (HPLC): 1) 3′-Chloropropiophenone / Chromatographic purity A) (HPLC): 3) 3′-Chlorobenzoic acid / Chromatographic purity A) (HPLC): 2) 3′-Chloro-2-bromopropiophenone: LOQ 0.05%; for Chromatographic purity A) (HPLC): 1) 3′-Chloropropiophenone / Chromatographic purity A) (HPLC): 3) 3′-Chlorobenzoic acid: LOD 0.01%; for Chromatographic purity A) (HPLC): 2) 3′-Chloro-2-bromopropiophenone: LOD 0.04%; for Description: specification white or almost white crystalline powder; for Assay (HPLC): on d.b.; for Chromatographic purity B) (HPLC): 6) total unknown impurities: sum of all impurity peak areas
Protocol: The stability of bupropion HBr was studied over a longer term under conditions meant to approximate standard storage or shelf conditions. Samples were prepared in closed containers and subjected to long-term storage at 25° C.+2° C. and 60%+5% RH in a stability chamber. The samples were analyzed by HPLC prior to being placed in the stability chamber (time 0) and after 3 months and 6 months. The amounts of the main degradation products present at time 0 were compared with the amounts present at 3 months and 6 months. As shown in Table 77-79 three different batches of bupropion HBr were tested. As in Example 10 each sample was tested under two HPLC assay conditions to identify 6 impurities or groups of impurities as described in Example 10.

Br.CC(NC(C)(C)C)C(=O)c1cccc(Cl)c1 (stereo not shown) [Bupropion•HBr D00894]
Chromatographic purity (HPLC: A + B) Total impurities (3 months): 0.1%
Water content (K.F.) (3 months): 0.05%
Chromatographic purity B) (HPLC): 4) 2-N-(tert-Butyl)-aminopropiophenone (3 months): 4) 0.03%
Chromatographic purity B) (HPLC): 5) single unknown impurity (each) (3 months): 5) 0.04%
Chromatographic purity A) (HPLC): 1) 3′-Chloropropiophenone (3 months): 1) n.q.
Chromatographic purity A) (HPLC): 3) 3′-Chlorobenzoic acid (3 months): 3) n.q.
Chromatographic purity A) (HPLC): 2) 3′-Chloro-2-bromopropiophenone (3 months): 2) n.d.
Description (3 months): conform
Chromatographic purity (HPLC: A + B) Total impurities (6 months): 0.1%
Water content (K.F.) (6 months): 0.06%
Chromatographic purity B) (HPLC): 4) 2-N-(tert-Butyl)-aminopropiophenone (6 months): 4) 0.05%
Chromatographic purity B) (HPLC): 5) single unknown impurity (each) (6 months): 5) n.q.
Chromatographic purity A) (HPLC): 1) 3′-Chloropropiophenone (6 months): 1) 0.05%
Chromatographic purity A) (HPLC): 3) 3′-Chlorobenzoic acid (6 months): 3) n.q.
Chromatographic purity A) (HPLC): 2) 3′-Chloro-2-bromopropiophenone (6 months): 2) n.d.
Assay (HPLC) (6 months): 100.2%
Description (6 months): conform
Chromatographic purity (HPLC: A + B) Total impurities (9 months): n.q.
Water content (K.F.) (9 months): 0.05%
Chromatographic purity B) (HPLC): 4) 2-N-(tert-Butyl)-aminopropiophenone (9 months): 4) n.d.
Chromatographic purity B) (HPLC): 5) single unknown impurity (each) (9 months): 5) n.q.
Chromatographic purity A) (HPLC): 1) 3′-Chloropropiophenone (9 months): 1) n.q.
Chromatographic purity A) (HPLC): 3) 3′-Chlorobenzoic acid (9 months): 3) n.q.
Chromatographic purity A) (HPLC): 2) 3′-Chloro-2-bromopropiophenone (9 months): 2) n.d.
Description (9 months): conform
Chromatographic purity B) (HPLC): 6) total unknown impurities (9 months): 6) n.q.
Chromatographic purity (HPLC: A + B) Total impurities (12 months): 0.2%
Water content (K.F.) (12 months): 0.05%
Chromatographic purity B) (HPLC): 4) 2-N-(tert-Butyl)-aminopropiophenone (12 months): 4) 0.05%
Chromatographic purity B) (HPLC): 5) single unknown impurity (each) (12 months): 5) 0.05%
Chromatographic purity A) (HPLC): 1) 3′-Chloropropiophenone (12 months): 1) n.d.
Chromatographic purity A) (HPLC): 3) 3′-Chlorobenzoic acid (12 months): 3) 0.05%
Chromatographic purity A) (HPLC): 2) 3′-Chloro-2-bromopropiophenone (12 months): 2) n.d.
Assay (HPLC) (12 months): 99.6%
Description (12 months): conform
Chromatographic purity B) (HPLC): 6) total unknown impurities (12 months): 6) 0.07%
Chromatographic purity (HPLC: A + B) Total impurities (time 0): 0.1%
Water content (K.F.) (time 0): 0.05%
Chromatographic purity B) (HPLC): 4) 2-N-(tert-Butyl)-aminopropiophenone (time 0): 4) 0.04%
Chromatographic purity B) (HPLC): 5) single unknown impurity (each) (time 0): 5) 0.04%
Chromatographic purity A) (HPLC): 1) 3′-Chloropropiophenone (time 0): 1) n.d.
Chromatographic purity A) (HPLC): 3) 3′-Chlorobenzoic acid (time 0): 3) n.q.
Chromatographic purity A) (HPLC): 2) 3′-Chloro-2-bromopropiophenone (time 0): 2) n.d.
Assay (HPLC) (time 0): 99.6%
Description (time 0): conform

Br.CC(NC(C)(C)C)C(=O)c1cccc(Cl)c1 (stereo not shown) [Bupropion•HBr D00895]
Chromatographic purity (HPLC: A + B) Total impurities (3 months): 0.1%
Water content (K.F.) (3 months): 0.04%
Chromatographic purity B) (HPLC): 4) 2-N-(tert-Butyl)-aminopropiophenone (3 months): 4) 0.03%
Chromatographic purity B) (HPLC): 5) single unknown impurity (each) (3 months): 5) 0.04%
Chromatographic purity A) (HPLC): 1) 3′-Chloropropiophenone (3 months): 1) n.q.
Chromatographic purity A) (HPLC): 3) 3′-Chlorobenzoic acid (3 months): 3) n.q.
Chromatographic purity A) (HPLC): 2) 3′-Chloro-2-bromopropiophenone (3 months): 2) n.d.
Description (3 months): conform
Chromatographic purity (HPLC: A + B) Total impurities (6 months): 0.1%
Water content (K.F.) (6 months): 0.05%
Chromatographic purity B) (HPLC): 4) 2-N-(tert-Butyl)-aminopropiophenone (6 months): 4) 0.05%
Chromatographic purity B) (HPLC): 5) single unknown impurity (each) (6 months): 5) n.q.
Chromatographic purity A) (HPLC): 1) 3′-Chloropropiophenone (6 months): 1) 0.05%
Chromatographic purity A) (HPLC): 3) 3′-Chlorobenzoic acid (6 months): 3) n.q.
Chromatographic purity A) (HPLC): 2) 3′-Chloro-2-bromopropiophenone (6 months): 2) n.d.
Assay (HPLC) (6 months): 100.1%
Description (6 months): conform
Chromatographic purity B) (HPLC): 6) total unknown impurities (6 months): 6) 0.02%
Chromatographic purity (HPLC: A + B) Total impurities (9 months): n.q.
Water content (K.F.) (9 months): 0.05%
Chromatographic purity B) (HPLC): 4) 2-N-(tert-Butyl)-aminopropiophenone (9 months): 4) n.d.
Chromatographic purity B) (HPLC): 5) single unknown impurity (each) (9 months): 5) n.q.
Chromatographic purity A) (HPLC): 1) 3′-Chloropropiophenone (9 months): 1) n.q.
Chromatographic purity A) (HPLC): 3) 3′-Chlorobenzoic acid (9 months): 3) n.q.
Chromatographic purity A) (HPLC): 2) 3′-Chloro-2-bromopropiophenone (9 months): 2) n.d.
Description (9 months): conform
Chromatographic purity B) (HPLC): 6) total unknown impurities (9 months): 6) n.q.
Chromatographic purity (HPLC: A + B) Total impurities (12 months): 0.2%
Water content (K.F.) (12 months): 0.04%
Chromatographic purity B) (HPLC): 4) 2-N-(tert-Butyl)-aminopropiophenone (12 months): 4) 0.05%
Chromatographic purity B) (HPLC): 5) single unknown impurity (each) (12 months): 5) 0.07%
Chromatographic purity A) (HPLC): 1) 3′-Chloropropiophenone (12 months): 1) n.d.
Chromatographic purity A) (HPLC): 3) 3′-Chlorobenzoic acid (12 months): 3) 0.05%
Chromatographic purity A) (HPLC): 2) 3′-Chloro-2-bromopropiophenone (12 months): 2) n.d.
Description (12 months): conform
Chromatographic purity B) (HPLC): 6) total unknown impurities (12 months): 6) 0.07%
Chromatographic purity (HPLC: A + B) Total impurities (time 0): 0.1%
Water content (K.F.) (time 0): 0.04%
Chromatographic purity B) (HPLC): 4) 2-N-(tert-Butyl)-aminopropiophenone (time 0): 4) 0.04%
Chromatographic purity B) (HPLC): 5) single unknown impurity (each) (time 0): 5) 0.04%
Chromatographic purity A) (HPLC): 1) 3′-Chloropropiophenone (time 0): 1) n.d.
Chromatographic purity A) (HPLC): 3) 3′-Chlorobenzoic acid (time 0): 3) n.q.
Chromatographic purity A) (HPLC): 2) 3′-Chloro-2-bromopropiophenone (time 0): 2) n.d.
Assay (HPLC) (time 0): 99.2%
Description (time 0): conform
Chromatographic purity B) (HPLC): 6) total unknown impurities (time 0): 6) 0.04%

Br.CC(NC(C)(C)C)C(=O)c1cccc(Cl)c1 (stereo not shown) [Bupropion•HBr D00896]
Chromatographic purity (HPLC: A + B) Total impurities (3 months): 0.1%
Water content (K.F.) (3 months): 0.04%
Chromatographic purity B) (HPLC): 4) 2-N-(tert-Butyl)-aminopropiophenone (3 months): 4) 0.03%
Chromatographic purity B) (HPLC): 5) single unknown impurity (each) (3 months): 5) 0.04%
Chromatographic purity A) (HPLC): 1) 3′-Chloropropiophenone (3 months): 1) n.q.
Chromatographic purity A) (HPLC): 3) 3′-Chlorobenzoic acid (3 months): 3) n.q.
Chromatographic purity A) (HPLC): 2) 3′-Chloro-2-bromopropiophenone (3 months): 2) n.d.
Description (3 months): conform
Chromatographic purity B) (HPLC): 6) total unknown impurities (3 months): 6) 0.05%
Chromatographic purity (HPLC: A + B) Total impurities (6 months): 0.1%
Water content (K.F.) (6 months): 0.04%
Chromatographic purity B) (HPLC): 4) 2-N-(tert-Butyl)-aminopropiophenone (6 months): 4) 0.04%
Chromatographic purity B) (HPLC): 5) single unknown impurity (each) (6 months): 5) n.q.
Chromatographic purity A) (HPLC): 1) 3′-Chloropropiophenone (6 months): 1) 0.05%
Chromatographic purity A) (HPLC): 3) 3′-Chlorobenzoic acid (6 months): 3) n.q.
Chromatographic purity A) (HPLC): 2) 3′-Chloro-2-bromopropiophenone (6 months): 2) n.d.
Assay (HPLC) (6 months): 100.5%
Description (6 months): conform
Chromatographic purity B) (HPLC): 6) total unknown impurities (6 months): 6) n.q.
Chromatographic purity (HPLC: A + B) Total impurities (9 months): n.q.
Water content (K.F.) (9 months): 0.04%
Chromatographic purity B) (HPLC): 4) 2-N-(tert-Butyl)-aminopropiophenone (9 months): 4) n.d.
Chromatographic purity B) (HPLC): 5) single unknown impurity (each) (9 months): 5) n.q.
Chromatographic purity A) (HPLC): 1) 3′-Chloropropiophenone (9 months): 1) n.q.
Chromatographic purity A) (HPLC): 3) 3′-Chlorobenzoic acid (9 months): 3) n.q.
Chromatographic purity A) (HPLC): 2) 3′-Chloro-2-bromopropiophenone (9 months): 2) n.d.
Description (9 months): conform
Chromatographic purity B) (HPLC): 6) total unknown impurities (9 months): 6) n.q.
Chromatographic purity (HPLC: A + B) Total impurities (12 months): 0.1%
Water content (K.F.) (12 months): 0.03%
Chromatographic purity B) (HPLC): 4) 2-N-(tert-Butyl)-aminopropiophenone (12 months): 4) 0.05%
Chromatographic purity B) (HPLC): 5) single unknown impurity (each) (12 months): 5) 0.07%
Chromatographic purity A) (HPLC): 1) 3′-Chloropropiophenone (12 months): 1) n.d.
Chromatographic purity A) (HPLC): 3) 3′-Chlorobenzoic acid (12 months): 3) n.q.
Chromatographic purity A) (HPLC): 2) 3′-Chloro-2-bromopropiophenone (12 months): 2) n.d.
Assay (HPLC) (12 months): 100.3%
Description (12 months): conform
Chromatographic purity B) (HPLC): 6) total unknown impurities (12 months): 6) 0.07%
Chromatographic purity (HPLC: A + B) Total impurities (time 0): 0.1%
Water content (K.F.) (time 0): 0.06%
Chromatographic purity B) (HPLC): 4) 2-N-(tert-Butyl)-aminopropiophenone (time 0): 4) 0.04%
Chromatographic purity B) (HPLC): 5) single unknown impurity (each) (time 0): 5) 0.05%
Chromatographic purity A) (HPLC): 1) 3′-Chloropropiophenone (time 0): 1) n.d.
Chromatographic purity A) (HPLC): 3) 3′-Chlorobenzoic acid (time 0): 3) n.q.
Chromatographic purity A) (HPLC): 2) 3′-Chloro-2-bromopropiophenone (time 0): 2) n.d.
Assay (HPLC) (time 0): 99.3%
Description (time 0): conform
Chromatographic purity B) (HPLC): 6) total unknown impurities (time 0): 6) 0.05%
